Measured values taken from patent publication US6762160B2, “Composition for removing biofilms comprising a detergent and a salt forming acid” (Universite de Montreal, priority 1998, dated 2004).
Entries after “also recorded” stand apart in the source; their conditions may differ.

Assays:
[1] = system: mature biofilms on lumen of dental unit waterlines tubings; assay: Biofilm removal from dental unit waterline tubing pieces, binocular microscope 40x, arbitrary scale; assay type: cell-based, dental unit waterlines bacteria; conditions: for detergent capable of dislodging biofilms: different types of detergents tried; on RESULTS AFTER DISINFECTION 1 hour (biofilm scale): key: −: no biofilm; ++++: + ++ + : no significant removal of film; on RESULTS AFTER DISINFECTION 18 hours (biofilm scale): key: −: no biofilm; ++++: + ++ + : no significant removal of film
Protocol: Two-cm long pieces of dental unit waterlines tubings were used. These tubings were taken from functional dental units installed at the faculty of dentistry of the University of Montreal. […] The pieces were sectioned longitudinally with a sterile scalpel blade to expose the biofilm. Another series of tubings was left untouched. Sections of tubings were placed in sterile 5 ml disposable test tubes containing solutions to be tested.
After 1 or 18 hours without agitation at room temperature, tubings were rinsed three times with sterile water.

[2] = system: dental unit waterlines bacteria; assay: Antibacterial activity: growth in R2Am medium after disinfection of tubings;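 further: disinfected tubing pieces kept 7 days at room temperature in R2Am medium, then scored for presence or absence of bacterial growth by absorbance at 590 nm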
Protocol: To test the antibacterial activity, we used the same setup as above. After the 1 or 18 hour incubation, tubings were rinsed with sterile water. Pieces of tubings were dropped in sterile test tubes containing 4 ml of R2Am medium. Test tubes were capped and incubated for 7 days at room temperature. […] Data were recorded as presence or absence of growth with a spectrophotometer at λ=590 nm.

Mycobacterium sp. = assay type: cell-based
[3] = selected acid 1% with H2O2 5%, EDTA 1%, SDS 1%, pH 5,0, 18 hours contact, room temperature, no agitation
[4] = selected acid 1% with H2O2 5%, EDTA 1%, SDS 1%, pH 5,0, tubing incubated 7 days in R2Am, 590 nm
[5] = acid 1% in H2O2 5%/EDTA 1%/SDS 1% solution, pH 5.0, 1 hour or 18 hours
[6] = selected acid 1% with H2O2 5%, EDTA 1%, SDS 1%, pH 5,0, 1 hour contact, room temperature, no agitation

Compound | RESULTS AFTER DISINFECTION Growth [2, 4] | acceptably performing acids: decontamination within the specified times [1, 5] | other results
CC(N)C(=O)O (racemic) [DL-Alanine] | − |  | RESULTS AFTER DISINFECTION 18 hours (biofilm scale) [1, 3]: −
NC(Cc1ccc(O)cc1)C(=O)O (racemic) [DL-Tyrosine] | − | sufficient decontamination | 
O=C(O)CCC(=O)C(=O)O [2-Ketoglutaric Acid] |  |  | RESULTS AFTER DISINFECTION 1 hour (biofilm scale) ([1]; pH 5): −; RESULTS AFTER DISINFECTION 18 hours (biofilm scale) ([1]; pH 5): −; RESULTS AFTER DISINFECTION Growth ([2]; pH 5): −
CC(=O)O [Acetic Acid] | − |  | salt-forming acid tried against biofilm ([1]; acetic acid 0.1% to 1%): very efficient; RESULTS AFTER DISINFECTION 1 hour (biofilm scale) [1, 6]: −; RESULTS AFTER DISINFECTION 18 hours (biofilm scale) [1, 3]: −
O=C(O)CCCCC(=O)O [Adipic Acid] | − | sufficient decontamination | 
O=C(O)c1ccccc1 [Benzoic Acid] |  |  | acceptably performing acids: decontamination within the specified times ([1]; pH 5): sufficient decontamination; RESULTS AFTER DISINFECTION Growth ([2]; pH 5): −
O=C(O)C(=O)c1ccccc1 [Benzoylformic Acid] | − | sufficient decontamination | 
O=C(O)CN(CCO)CCO [Bicine] | − | sufficient decontamination | 
OB(O)O [Boric Acid (B(OH)3), Boric Acid] | − | sufficient decontamination | 
O=C(O)CCl [Chloroacetic Acid] |  |  | RESULTS AFTER DISINFECTION 18 hours (biofilm scale) ([1]; pH 5): −; RESULTS AFTER DISINFECTION Growth ([2]; pH 5): −
O=C(O)CC(O)(CC(=O)O)C(=O)O [Citric Acid] | − | sufficient decontamination | 
N[C@H](Cc1ccccc1)C(=O)O [D-Phenylalanine] | − |  | 
O=C(O)C(O)C(O)C(=O)O [D-Tartric acid] | − |  | 
O=C(O)C(Cl)Cl [Dichloroacetic Acid] | − |  | acceptably performing acids: decontamination within the specified times ([1]; pH 5): sufficient decontamination
O=CO [Formic Acid] |  |  | acceptably performing acids: decontamination within the specified times ([1]; pH 5): sufficient decontamination; RESULTS AFTER DISINFECTION Growth ([2]; pH 5): −
O=C(O)/C=C/C(=O)O [Fumaric Acid] | − |  | RESULTS AFTER DISINFECTION 1 hour (biofilm scale) [1, 6]: −; RESULTS AFTER DISINFECTION 18 hours (biofilm scale) [1, 3]: −
O=C[C@H](O)[C@@H](O)[C@H](O)[C@H](O)C(=O)O [Glucuronic Acid] | − | sufficient decontamination | 
N[C@@H](CCC(=O)O)C(=O)O [Glutamic Acid] | − | sufficient decontamination | 
NCC(=O)O [Glycine] | − | sufficient decontamination | 
O=C(O)CO [Glycolic Acid] | − |  | RESULTS AFTER DISINFECTION 1 hour (biofilm scale) [1, 6]: −; RESULTS AFTER DISINFECTION 18 hours (biofilm scale) [1, 3]: −
O=C(O)CNCC(=O)O [Iminodiacetic Acid] | − |  | RESULTS AFTER DISINFECTION 1 hour (biofilm scale) [1, 6]: −; RESULTS AFTER DISINFECTION 18 hours (biofilm scale) [1, 3]: −
O=C1O[C@H]([C@@H](O)CO)C(O)=C1O [L-Ascorbic Acid] | − |  | RESULTS AFTER DISINFECTION 1 hour (biofilm scale) [1, 6]: ++++
N[C@@H](CC(=O)O)C(=O)O [L-Aspartic Acid] | − |  | RESULTS AFTER DISINFECTION 18 hours (biofilm scale) [1, 3]: −
N[C@@H](CO)C(=O)O [L-Serine] | − | sufficient decontamination | 
N[C@@H](Cc1c[nH]c2ccccc12)C(=O)O [L-Tryptophan] |  |  | acceptably performing acids: decontamination within the specified times ([1]; pH 5): sufficient decontamination; RESULTS AFTER DISINFECTION Growth ([2]; pH 5): −

Compound | RESULTS AFTER DISINFECTION Growth [2, 4] | acceptably performing acids: decontamination within the specified times [1, 5] | other results
CC(O)C(=O)O (stereo not shown) [Lactic Acid] | − |  | 
O=C(O)/C=C\C(=O)O [Maleic Acid] | − | sufficient decontamination | 
O=C(O)CC(O)C(=O)O (stereo not shown) [Malic Acid] | − | sufficient decontamination | 
O=C(O)CC(=O)O [Malonic Acid] | − |  | 
O=C(O)C(O)c1ccccc1 (stereo not shown) [Mandelic Acid] | − |  | salt-forming acid tried against biofilm ([1]; mandelic acid 1% to 10%): success; RESULTS AFTER DISINFECTION 1 hour (biofilm scale) [1, 6]: −; RESULTS AFTER DISINFECTION 18 hours (biofilm scale) [1, 3]: −
O=C(O)[C@@H](O)[C@H](O)[C@H](O)[C@@H](O)C(=O)O [Mucic Acid] | − |  | RESULTS AFTER DISINFECTION 1 hour (biofilm scale) [1, 6]: −; RESULTS AFTER DISINFECTION 18 hours (biofilm scale) [1, 3]: −
O=C(O)CN(CC(=O)O)CC(=O)O [Nitrilotriacetic Acid] | − | sufficient decontamination | 
O=C(O)C(=O)O [Oxalic Acid] | − | sufficient decontamination | 
NC(=O)C(=O)O [Oxamic Acid] | − | sufficient decontamination | 
O=C(O)Cc1ccccc1 [Phenylacetic Acid] | − | sufficient decontamination | 
O=P(O)(O)O [Phosphoric Acid (H3PO4), Phosphoric Acid] | − |  | RESULTS AFTER DISINFECTION 18 hours (biofilm scale) [1, 3]: −
O=C(O)c1ccccc1C(=O)O [Phthalic Acid] | − | sufficient decontamination | 
CC(=O)C(=O)O [Pyruvic Acid] | − |  | RESULTS AFTER DISINFECTION 18 hours (biofilm scale) [1, 3]: −
N[C@@H](C(=O)O)c1ccccc1 [R-2-Phenylglycine] | − |  | 
CCCCCCCCCCCCOS(=O)(=O)[O-].[Na+] [SDS, Sodium dodecyl sulfate] |  |  | biofilm removal efficiency after 18 hours ([1]; SDS 0.15% with 6% hydrogen peroxide, HEEDTA 0.3%, acetic acid 0.1%, zinc sulfate heptahydrate 0.1%, pH adjusted to 5, 18 hours): perfect efficiency; biofilm removal activity after one hour ([1]; SDS 0.15% with 6% hydrogen peroxide, HEEDTA 0.3%, acetic acid 0.1%, zinc sulfate heptahydrate 0.1%, pH adjusted to 5, one hour, sulfate): very good activity; also recorded: did work well; cleaning efficacy within one hour ([1]; SDS 1%, within one hour): perfect cleaning efficacy; detergent capable of dislodging biofilms [1]: capable of dislodging biofilms
O=C(O)c1ccccc1O [Salicylic Acid] | − | sufficient decontamination | 
O=C(O)CCC(=O)O [Succinic Acid] | − | sufficient decontamination | 
O=C(O)CNC(CO)(CO)CO [Tricine] | − | sufficient decontamination | 
OCl [sodium hypochlorite] |  |  | killing activity of bactericide, even against Mycobacterium sp. (Mycobacterium sp.): broad host killing activity; also recorded: efficient
Ketopimelic Acid | − | sufficient decontamination | 
Povidone-iodine |  |  | efficiency of bactericide combined to detergent ([1]; combined to the detergent Tween 20): significant efficiency; detergent capable of dislodging biofilms [1]: capable of dislodging biofilms; bactericide tried in cleaning solution [2]: success
R-Chloromandelic Acid | − | sufficient decontamination | 
Sodium cocoyl sarcosinate [SCS] |  |  | detergent capable of dislodging biofilms [1]: capable of dislodging biofilms
Sodium n-decyl diphenylether disulfonate [SDDD] |  |  | detergent capable of dislodging biofilms [1]: capable of dislodging biofilms
Tetrasodium EDTA |  |  | chelator tried against biofilms [1]: a certain degree of success
